Assays:
Test in all cases: Proliferation Assay
Assay type in all cases: cell-based
SKBR3 (breast) = conditions: Homo sapiens, SK-BR-3, 72 h, read-out: IC50 inhibition of cell growth
Experimental: (§1) For the determination of the inhibitory capacity of compounds of the present invention (in the following: “test compound(s)”) on cell growth, cancer cells were seeded into microtitre plates, treated with different concentrations of test compound or left untreated, and after 72 h the protein content was determined as an equivalent for the cell number.
(§2) Test compounds were dissolved in 100% DMSO and predilutions in cell culture medium were prepared with a final concentration of 0.1% DMSO in medium. The cell culture medium for dilution of the test compounds, consecutive culturing of cell lines and usage during the assay was a cell line specific medium as recommended by the cell line supplier and identical for all three applications mentioned above. After a 24-hour pre-growth period of the seeded cancer cells, the test compound containing media or medium containing 0.1% DMSO as control was added to the cells. The cells were allowed to grow at 37° C. for 72 hours. In addition, all experiments contained a few plates with cells that were processed for measurement immediately after the 24 hours recovery period. These plates contained information about the cell number that existed before treatment, at time zero, and served to calculate the cytotoxicity and/or growth inhibitory effects.
(§3) After treatment, cells were precipitated by addition of 10% TCA (trichloracetic acid). Prior to fixation, the media was aspirated. After an hour of incubation at 4° C. the plates were washed twice with 400 μl of deionized water. Cells were then stained with 100 μl of a 0.08% wt/v SRB (sulforhodamine). The plates were allowed to sit for at least 30 min and washed six times with 1% acetic acid to remove unbound staining agent. The plates were left to dry at room temperature and bound SRB was solubilized with 100 μl of 10 mM Tris base. Measurement of optical density was performed at 560 nm on a Victor 2 plate reader (Perkin Elmer, Germany).
(§4) One common way to express the effect of an anticancer agent is to measure cell viability and survival in the presence of the test agent as % Treated/Control×100. The relationship between the viability and dose is called a dose response curve. Those dose response curves were determined by using algorithms developed by Oncolead GmbH & Co. KG, Munich, Germany, that can be compared to commercial applications, e.g. XLfit™ (ID Business Solutions Ltd., Guildford, UK) algorithm “205”.

TE671 (muscle) = conditions: Homo sapiens, TE-671, 72 h, read-out: IC50 inhibition of cell growth
Experimental: as §1, §2, §3, §4

EFO21 (ovary) = conditions: Homo sapiens, EFO-21, 72 h, read-out: IC50 inhibition of cell growth
Experimental: as §1, §2, §3, §4

SAOS2 (bone) = conditions: Homo sapiens, SAOS-2, 72 h, read-out: IC50 inhibition of cell growth
Experimental: as §1, §2, §3, §4

U2OS (bone) = conditions: Homo sapiens, 72 h, read-out: IC50 inhibition of cell growth
Experimental: as §1, §2, §3, §4

786O (kidney) = conditions: Homo sapiens, 786-0, 72 h, read-out: IC50 inhibition of cell growth
Experimental: as §1, §2, §3, §4

RD (muscle) = conditions: 72 h, read-out: IC50 inhibition of cell growth
Experimental: as §1, §2, §3, §4

PANC1 (pancreas) = conditions: Homo sapiens, PANC-1, 72 h, read-out: IC50 inhibition of cell growth
Experimental: as §1, §2, §3, §4

COLO205 (colon) = conditions: Homo sapiens, COLO 205, 72 h, read-out: IC50 inhibition of cell growth
Experimental: as §1, §2, §3, §4

IGROV1 (ovary) = conditions: Homo sapiens, IGROV-1, 72 h, read-out: IC50 inhibition of cell growth
Experimental: as §1, §2, §3, §4

T24 (bladder) = conditions: 72 h, read-out: IC50 inhibition of cell growth
Experimental: as §1, §2, §3, §4

PLCPRFS (liver) = conditions: 72 h, read-out: IC50 inhibition of cell growth
Experimental: as §1, §2, §3, §4

U87MG (brain) = conditions: Homo sapiens, U-87 MG, 72 h, read-out: IC50 inhibition of cell growth
Experimental: as §1, §2, §3, §4

A549 (lung) = conditions: Homo sapiens, 72 h, read-out: IC50 inhibition of cell growth
Experimental: as §1, §2, §3, §4

OVCAR4 (ovary) = conditions: Homo sapiens, OVCAR-4, 72 h, read-out: IC50 inhibition of cell growth
Experimental: as §1, §2, §3, §4

NCIH292 (lung) = conditions: Homo sapiens, NCI-H292, 72 h, read-out: IC50 inhibition of cell growth
Experimental: as §1, §2, §3, §4

HEK293 (kidney) = conditions: Homo sapiens, 72 h, read-out: IC50 inhibition of cell growth
Experimental: as §1, §2, §3, §4

SKNSH (brain) = conditions: Homo sapiens, SK-N-SH, 72 h, read-out: IC50 inhibition of cell growth
Experimental: as §1, §2, §3, §4

SF268 (brain) = conditions: Homo sapiens, SF-268, 72 h, read-out: IC50 inhibition of cell growth
Experimental: as §1, §2, §3, §4

DLD1 (colon) = conditions: Homo sapiens, DLD-1, 72 h, read-out: IC50 inhibition of cell growth
Experimental: as §1, §2, §3, §4

PANC1005 (pancreas) = conditions: Homo sapiens, 72 h, read-out: IC50 inhibition of cell growth
Experimental: as §1, §2, §3, §4

JEG3 (placenta) = conditions: Homo sapiens, JEG-3, 72 h, read-out: IC50 inhibition of cell growth
Experimental: as §1, §2, §3, §4

NCIH460 (lung) = conditions: Homo sapiens, NCI-H460, 72 h, read-out: IC50 inhibition of cell growth
Experimental: as §1, §2, §3, §4

UMUC3 (bladder) = conditions: Homo sapiens, 72 h, read-out: IC50 inhibition of cell growth
Experimental: as §1, §2, §3, §4

SKMEL28 (skin) = conditions: Homo sapiens, SK-MEL-28, 72 h, read-out: IC50 inhibition of cell growth
Experimental: as §1, §2, §3, §4

IMR90 (lung) = conditions: Homo sapiens, IMR-90, 72 h, read-out: IC50 inhibition of cell growth
Experimental: as §1, §2, §3, §4

Measured: IC50

COc1cccc(C(=O)Nc2nc3cc4c(cc3[nH]2)OC(F)(F)O4)c1 [Compound 56, N-(2,2-difluoro-5H-[1,3]dioxolo[4′,5′:4,5]benzo[1,2-d]imidazol-6-yl)-3-methoxybenzamide]
≤ 1000 nM: all assays above
